Measured values taken from patent publication US10457707B2, “Substituted urea depsipeptide analogs as activators of the CLPP endopeptidase” (priority 2015, dated 2019).
*1 amine or outer side, *2 acyl side, *3 side chain or, on linkers, in order; H or OH if unused. Where a SMILES comes first, the peptide text is derived from it. Bridges are numbered along the chain shown (N, C = ends). [ ]: non-standard residue; d: D form. The star is where a group is joined. NH(1,3-benzodioxol-5-yl) = c1cc2c(cc1N*)OCO2; Phe(3,5-F2) = N[C@@H](Cc1cc(F)cc(F)c1)C(=O)O; NH(1-Me-indolin-5-yl) = CN1CCc2cc(N*)ccc21; NH(4-OCF3-phenyl) = FC(F)(F)Oc1ccc(N*)cc1; Morpholine(3S-CO) = O=C(O)[C@@H]1COCCN1; Pro(4S-Me) = C[C@@H]1CN[C@H](C(=O)O)C1; NH(4-Cl-2-F-phenyl) = Fc1cc(Cl)ccc1N*; Pro(4R-Me) = C[C@H]1CN[C@H](C(=O)O)C1; NMeaThr = CN[C@H](C(=O)O)[C@H](C)O; Hyp = O=C(O)[C@@H]1C[C@@H](O)CN1; NH(4-Et-phenyl) = CCc1ccc(N*)cc1; NH(4-Me-phenyl) = Cc1ccc(N*)cc1; aThr = C[C@H](O)[C@H](N)C(=O)O; Pip = O=C(O)[C@@H]1CCCCN1; X1 = N#Cc1cc(N*)ccc1F; X6 = Cc1cc(C)cc(N*)c1; CO = O=C([*:1])[*:2]; X7 = CC/C=C/C(=O)*

Target: T1, Sa-ClpP (Staphylococcus aureus, UniProt Q2G036)
T1 construct: made in house; host or cells: E. coli BL21(DE3)
T1 sequence (Q2G036 1-195): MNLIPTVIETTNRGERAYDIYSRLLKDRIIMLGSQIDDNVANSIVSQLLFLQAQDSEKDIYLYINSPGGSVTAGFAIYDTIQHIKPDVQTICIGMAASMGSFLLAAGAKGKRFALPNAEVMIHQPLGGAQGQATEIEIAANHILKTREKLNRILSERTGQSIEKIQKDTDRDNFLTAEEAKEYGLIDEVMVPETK
Test: Sa-ClpP casein-BODIPY ClpP activation assay, method variant not marked in Table 5
Format: biochemical, S. aureus
Settings: not given
How it was run: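 Purified S. aureus ClpP (10 μM) incubated with 25 μg/ml BODIPY FL casein and compound (0-1000 μM) in pH 8 Tris/KCl/TCEP at 37° C. Fluorescence (485/528 nm) read every 5 min over 45 min; reaction velocities fitted to dose-response for EC50 (50% activation), triplicate.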

Q: How did the EC50 turn out when C[C@@H]1C[C@H]2C(=O)OC[C@H](NC(=O)[C@H](Cc3cc(F)cc(F)c3)NC(=O)Nc3ccc4c(c3)OCO4)C(=O)N3C[C@H](O)C[C@H]3C(=O)N3CCOC[C@H]3C(=O)N[C@@H](C)C(=O)N2C1 [Compound 318, (S)-2-(3-(benzo[d][1,3]dioxol-5-yl)ureido)-3-(3,5-difluorophenyl)-N-((6aS,8R,12S,15aS,17R,21S,23aS)-8-hydroxy-17,21-dimethyl-6,11,15,20,23-pentaoxooctadecahydro-6H,11H,15H-[1,4]oxazino[3,4-i]dipyrrolo[2,1-c:2′,1′-l][1]oxa[4,7,10,13]tetraazacyclo-hexadecin-12-yl)propanamide] ({NH(1,3-benzodioxol-5-yl)-CO}-[Phe(3,5-F2)]S[Hyp][Morpholine(3S-CO)]A[Pro(4R-Me)]; ester 2-C) was run?
A: Its EC50 is 460 ± 60 nM.

Q: Which EC50 does the source give for C[C@@H]1C[C@H]2C(=O)O[C@@H](C)[C@H](NC(=O)[C@H](Cc3cc(F)cc(F)c3)NC(=O)Nc3ccc(Cl)cc3F)C(=O)N3C[C@H](O)C[C@H]3C(=O)N3CCCC[C@H]3C(=O)N[C@@H](C)C(=O)N2C1 [Compound 329, (S)-2-(3-(4-chloro-2-fluorophenyl)ureido)-3-(3,5-difluorophenyl)-N-((2R,6S,8aS,14aS,16R,20S,21S,23aS)-16-hydroxy-2,6,21-trimethyl-5,8,14,19,23-pentaoxooctadecahydro-1H,5H,14H,19H-pyrido[2,1-i]dipyrrolo[2,1-c:2′,1′-l][1]oxa[4,7,10,13]tetraazacyclo-hexadecin-20-yl)propanamide] ({NH(4-Cl-2-F-phenyl)-CO}-[Phe(3,5-F2)][aThr][Hyp][Pip]A[Pro(4R-Me)]; ester 2-C) here?
A: The EC50 was 400 ± 20 nM.

Q: How did the EC50 turn out when C[C@@H]1C[C@H]2C(=O)O[C@@H](C)[C@H](NC(=O)[C@H](Cc3cc(F)cc(F)c3)NC(=O)Nc3ccc(F)c(C#N)c3)C(=O)N3CCC[C@H]3C(=O)N3CCCC[C@H]3C(=O)N[C@@H](C)C(=O)N2C1 [Compound 324, (S)-2-(3-(3-cyano-4-fluorophenyl)ureido)-3-(3,5-difluorophenyl)-N-((2R,6S,8aS,14aS,20S,21S,23aS)-2,6,21-trimethyl-5,8,14,19,23-pentaoxooctadecahydro-1H,5H,14H,19H-pyrido[2,1-i]dipyrrolo[2,1-c:2′,1′-l][1]oxa[4,7,10,13]tetraazacyclo-hexadecin-20-yl)propanamide] ({X1-CO}-[Phe(3,5-F2)][aThr]P[Pip]A[Pro(4R-Me)]; ester 2-C) was run?
A: Its EC50 is 500 ± 30 nM.

Q: CCc1ccc(NC(=O)N[C@@H](Cc2cc(F)cc(F)c2)C(=O)N[C@@H]2C(=O)N3C[C@H](O)C[C@H]3C(=O)N3CCOC[C@H]3C(=O)N[C@@H](C)C(=O)N3C[C@H](C)C[C@H]3C(=O)O[C@H]2C)cc1 [Compound 320, (S)-3-(3,5-difluorophenyl)-2-(3-(4-ethylphenyl)ureido)-N-((6aS,8R,12S,13S,15aS,17R,21S,23aS)-8-hydroxy-13,17,21-trimethyl-6,11,15,20,23-pentaoxooctadecahydro-6H,11H,15H-[1,4]oxazino[3,4-i]dipyrrolo[2,1-c:2′,1′-l][1]oxa[4,7,10,13]-tetraazacyclohexadecin-12-yl)propanamide] ({NH(4-Et-phenyl)-CO}-[Phe(3,5-F2)][aThr][Hyp][Morpholine(3S-CO)]A[Pro(4R-Me)]; ester 2-C) was tested. Which EC50 did it give?
A: Its EC50 is 330 ± 100 nM.

Q: For Cc1cc(C)cc(NC(=O)N[C@@H](Cc2cc(F)cc(F)c2)C(=O)N[C@@H]2C(=O)N3CCC[C@H]3C(=O)N3CCCC[C@H]3C(=O)N[C@@H](C)C(=O)N3C[C@H](C)C[C@H]3C(=O)O[C@H]2C)c1 [Compound 304, (S)-3-(3,5-difluorophenyl)-2-(3-(3,5-dimethylphenyl)ureido)-N-((2R,6S,8aS,14aS,20S,21S,23aS)-2,6,21-trimethyl-5,8,14,19,23-pentaoxooctadecahydro-1H,5H,14H,19H-pyrido[2,1-i]dipyrrolo[2,1-c:2′,1′-l][1]oxa[4,7,10,13]tetraazacyclo-hexadecin-20-yl)propanamide] ({X6-CO}-[Phe(3,5-F2)][aThr]P[Pip]A[Pro(4R-Me)]; ester 2-C), which EC50 is on record?
A: Its EC50 is 380 ± 10 nM.

Q: CCc1ccc(NC(=O)N[C@@H](Cc2cc(F)cc(F)c2)C(=O)N[C@@H]2C(=O)N3C[C@H](O)C[C@H]3C(=O)N3CCCC[C@H]3C(=O)N[C@@H](C)C(=O)N3C[C@H](C)C[C@H]3C(=O)O[C@H]2C)cc1 [Compound 211, (S)-3-(3,5-difluorophenyl)-2-(3-(4-ethylphenyl)ureido)-N-((2R,6S,8aS,14aS,16R,20S,21S,23aS)-16-hydroxy-2,6,21-trimethyl-5,8,14,19,23-pentaoxooctadecahydro-1H,5H,14H,19H-pyrido[2,1-i]dipyrrolo[2,1-c:2′,1′-l][1]oxa[4,7,10,13]tetraazacyclohexadecin-20-yl)propanamide] ({NH(4-Et-phenyl)-CO}-[Phe(3,5-F2)][aThr][Hyp][Pip]A[Pro(4R-Me)]; ester 2-C) was tested. Which EC50 did it give?
A: The EC50 was 500 ± 10 nM.

Same assay, conditions: values without ** or † mark; assay variant not stated; read-out: ClpP Activation EC50

Q: How did the EC50 turn out when C[C@@H]1C[C@H]2C(=O)O[C@@H](C)[C@H](NC(=O)[C@H](Cc3cc(F)cc(F)c3)NC(=O)Nc3ccc4c(c3)CCN4C)C(=O)N3C[C@H](O)C[C@H]3C(=O)N3CCOC[C@H]3C(=O)N[C@@H](C)C(=O)N2C1 [Compound 315, (S)-3-(3,5-difluorophenyl)-N-((6aS,8R,12S,13S,15aS,17R,21S,23aS)-8-hydroxy-13,17,21-trimethyl-6,11,15,20,23-pentaoxooctadecahydro-6H,11H,15H-[1,4]oxazino[3,4-i]dipyrrolo[2,1-c:2′,1′-l][1]oxa[4,7,10,13]tetraazacyclohexadecin-12-yl)-2-(3-(1-methylindolin-5-yl)ureido)propanamide] ({NH(1-Me-indolin-5-yl)-CO}-[Phe(3,5-F2)][aThr][Hyp][Morpholine(3S-CO)]A[Pro(4R-Me)]; ester 2-C) was run?
A: The EC50 was 1060 ± 40 nM.

Q: For Cc1ccc(NC(=O)N[C@@H](Cc2cc(F)cc(F)c2)C(=O)N[C@@H]2C(=O)N3CCC[C@H]3C(=O)N(C)[C@@H]([C@H](C)O)C(=O)N[C@@H](C)C(=O)N3C[C@H](C)C[C@H]3C(=O)O[C@H]2C)cc1 [Compound 208, (S)-3-(3,5-difluorophenyl)-N-((2R,6S,9S,11aS,17S,18S,20aS)-9-((S)-1-hydroxyethyl)-2,6,10,18-tetramethyl-5,8,11,16,20-pentaoxohexadecahydro-1H,5H,16H-dipyrrolo[2,1-c:2′,1′-l][1]oxa[4,7,10,13]tetraazacyclohexadecin-17-yl)-2-(3-(p-tolyl)ureido)propanamide] ({NH(4-Me-phenyl)-CO}-[Phe(3,5-F2)][aThr]P[NMeaThr]A[Pro(4R-Me)]; ester 2-C), which EC50 is on record?
A: Its EC50 is 480 ± 30 nM.

Q: Which EC50 does the source give for CC/C=C/C(=O)N[C@@H](Cc1cc(F)cc(F)c1)C(=O)N[C@@H]1C(=O)N2C[C@H](O)C[C@H]2C(=O)N2CCCC[C@H]2C(=O)N[C@@H](C)C(=O)N2C[C@H](C)C[C@H]2C(=O)O[C@H]1C [Compound 300] (X7-[Phe(3,5-F2)][aThr][Hyp][Pip]A[Pro(4R-Me)]; ester 2-C) here?
A: The EC50 was 440 ± 30 nM.

Q: With C[C@H]1C[C@H]2C(=O)O[C@@H](C)[C@H](NC(=O)[C@H](Cc3cc(F)cc(F)c3)NC(=O)Nc3ccc(OC(F)(F)F)cc3)C(=O)N3CCC[C@H]3C(=O)N3CCOC[C@H]3C(=O)N[C@@H](C)C(=O)N2C1 [Compound 201, (S)-3-(3,5-difluorophenyl)-2-(3-(4-(trifluoromethoxy)phenyl)ureido)-N-((6aS,12S,13S,15aS,17S,21S,23aS)-13,17,21-trimethyl-6,11,15,20,23-pentaoxooctadecahydro-6H,11H,15H-[1,4]oxazino[3,4-i]dipyrrolo[2,1-c:2′,1′-l][1]oxa[4,7,10,13]tetraazacyclohexadecin-12-yl)propanamide] ({NH(4-OCF3-phenyl)-CO}-[Phe(3,5-F2)][aThr]P[Morpholine(3S-CO)]A[Pro(4S-Me)]; ester 2-C) as the compound, how does the EC50 read?
A: The EC50 was 330 ± 10 nM.

Q: How did the EC50 turn out when Cc1ccc(NC(=O)N[C@@H](Cc2cc(F)cc(F)c2)C(=O)N[C@H]2COC(=O)[C@@H]3C[C@@H](C)CN3C(=O)[C@H](C)NC(=O)[C@@H]3CCCCN3C(=O)[C@@H]3CCCN3C2=O)cc1C [Compound 207, (S)-3-(3,5-difluorophenyl)-N-((2R,6S,8aS,14aS,20S,23aS)-2,6-dimethyl-5,8,14,19,23-pentaoxooctadecahydro-1H,5H,14H,19H-pyrido[2,1-i]dipyrrolo[2,1-c:2′,1′-l][1]oxa[4,7,10,13]tetraazacyclohexadecin-20-yl)-2-(3-(3,4-dimethylphenyl)ureido)propanamide] was run?
A: Its EC50 is 8300 ± 1900 nM.

Q: Which EC50 does the source give for C[C@@H]1C[C@H]2C(=O)O[C@@H](C)[C@H](NC(=O)[C@H](Cc3cc(F)cc(F)c3)NC(=O)Nc3ccc4c(c3)CCN4C)C(=O)N3CCC[C@H]3C(=O)N3CCOC[C@H]3C(=O)N[C@@H](C)C(=O)N2C1 [Compound 312, (S)-3-(3,5-difluorophenyl)-2-(3-(1-methylindolin-5-yl)ureido)-N-((6aS,12S,13S,15aS,17R,21S,23aS)-13,17,21-trimethyl-6,11,15,20,23-pentaoxooctadecahydro-6H,11H,15H-[1,4]oxazino[3,4-i]dipyrrolo[2,1-c:2′,1′-l][1]oxa[4,7,10,13]tetraazacyclo-hexadecin-12-yl)propanamide] ({NH(1-Me-indolin-5-yl)-CO}-[Phe(3,5-F2)][aThr]P[Morpholine(3S-CO)]A[Pro(4R-Me)]; ester 2-C) here?
A: Its EC50 is 440 ± 20 nM.
